This passage reports melting point and IC50 results from US20110251194A1, “ANTINEOPLASTIC DERIVATIVES, PREPARATION THEREOF AND THERAPEUTIC USE THEREOF” (SANOFI-AVENTIS, priority 2008, published 2011).

Tested on in the first series: not given
Assay: not given
Details: not given
Regarding `CCn1c(N)c(C(=O)NCCN2CCOCC2)c(=O)c2ccc(-c3ccc(NC(=O)NCc4cccnc4)cc3)nc21` [No. 30, 2-Amino-1-ethyl-4-oxo-7-[4-(3-pyridin-3-ylmethylureido)phenyl]-1,4-dihydro[1,8]naphthyridine-3-carboxylic acid (2-morpholin-4-ylethyl)amide], the melting point came out at 245 °C.

Another series concerns HCT116 tumour line (ref. ATCC-CCL247). In words: MTS proliferation and cell viability test on the HCT116 tumour line. The class given is cell-based. Particulars: Homo sapiens, HCT-116, incubation of the tested compound for 72 h, 50% loss of proliferation and of cell viability. The method, then:
The proliferation and the cell viability were determined in a test using 3-(4,5-dimethylthiazol-2-yl)-5-(3-carboxymethoxyphenyl)-2-(4-sulfophenyl)-2H-tetrazolium (MTS) according to Fujishita T. et al. Oncology 2003, 64(4), 399-406 (see page 401). In this test, the mitochondrial capacity of the living cells for converting the MTS into a coloured compound, after incubation of the tested compound for 72 h, is measured. IC50 (nM) denotes the concentration of compound which results in a 50% loss of proliferation and of cell viability.
The compounds of Table I were the subject of in vitro experimental tests on the HCT116 tumour line (ref. ATCC-CCL247).
`CCn1c(N)c(C(=O)NC)c(=O)c2ccc(-c3ccc(NC(=O)NCc4cccnc4)cc3)nc21` [No. 1, 2-Amino-1-ethyl-4-oxo-7-[4-(3-pyridin-3-ylmethylureido)phenyl]-1,4-dihydro[1,8]naphthyridine-3-carboxylic acid methylamide] displayed an IC50 of 0.2 to 0.5 nM.

As for `CCn1c(N)c(C(=O)NC)c(=O)c2ccc(-c3ccc(NC(=O)/C=C/c4cccnc4)cc3)nc21` [No. 7, 2-Amino-1-ethyl-4-oxo-7-[4-((E)-3-pyridin-3-yl-acryloylamino)phenyl]-1,4-dihydro[1,8]naphthyridine-3-carboxylic acid methylamide], the midpoint of inhibition, the IC50, lay at 2 nM.

Consider `CCOC(=O)c1c(N)n(CC)c2nc(-c3ccc(NC(=O)NCc4cccnc4)cc3)ccc2c1=O` [No. 10, 2-Amino-1-ethyl-4-oxo-7-[4-(3-pyridin-3-ylmethylureido)phenyl]-1,4-dihydro[1,8]naphthyridine-3-carboxylic acid ethyl ester], for which the IC50 is less than 1 nM.

With `CCn1c(N)c(C(=O)O)c(=O)c2ccc(-c3ccc(NC(=O)NCc4cccnc4)cc3)nc21` [No. 13, 2-Amino-1-ethyl-4-oxo-7-[4-(3-pyridin-3-ylmethylureido)phenyl]-1,4-dihydro[1,8]naphthyridine-3-carboxylic acid], inhibition was half-maximal at 6 nM (IC50).

The compound `CCn1c(N)c(C(=O)NC)c(=O)c2ccc(-c3ccc(NC(=O)NCc4cccnc4)cc3)cc21` [No. 27, 2-Amino-1-ethyl-4-oxo-7-[4-(3-pyridin-3-ylmethylureido)phenyl]-1,4-dihydroquinoline-3-carboxylic acid methylamide] registered an IC50 of 0.1 nM.

As for `CCn1c(N)c(C(=O)NCCN2CCOCC2)c(=O)c2ccc(-c3ccc(NC(=O)NCc4cccnc4)cc3)nc21` [No. 30, 2-Amino-1-ethyl-4-oxo-7-[4-(3-pyridin-3-ylmethylureido)phenyl]-1,4-dihydro[1,8]naphthyridine-3-carboxylic acid (2-morpholin-4-ylethyl)amide], the IC50 is 0.1 nM.

With `CCn1c(NCCN2CCN(C)CC2)c(C(=O)NCCN2CCN(C)CC2)c(=O)c2ccc(-c3ccc(NC(=O)NCc4cccnc4)cc3)nc21` [No. 46, 1-Ethyl-2-[2-(4-methyl-piperazin-1-yl)-ethylamino]-4-oxo-7-[4-(3-pyridin-3-ylmethylureido)phenyl]-1,4-dihydro[1,8]naphthyridine-3-carboxylic acid [2-(4-methylpiperazin-1-yl)ethyl]amide], half-maximal inhibition (IC50) was put at 1.9 nM.

As to `CCn1c(N)c(C(=O)NC)c(=O)c2cnc(-c3ccc(NC(=O)NCc4cccnc4)cc3)nc21` [No. 53, 7-Amino-8-ethyl-5-oxo-2-[4-(3-pyridin-3-ylmethylureido)phenyl]-5,8-dihydro-pyrido[2,3-d]pyrimidine-6-carboxylic acid methylamide], the IC50 was 6 nM.

In turn, `CCn1c(N)c(C(N)=O)c(=O)c2ccc(-c3ccc(NC(=O)NCc4cccnc4)cc3)cc21` [No. 56, 2-Amino-1-ethyl-4-oxo-7-[4-(3-pyridin-3-ylmethylureido)phenyl]-1,4-dihydroquinoline-3-carboxylic acid amide] had an IC50 of 0.19 nM.

Turning to `CCn1c(NCCN2CCCC2C)c(C(=O)NCCN2CCCC2C)c(=O)c2ccc(-c3ccc(NC(=O)NCc4cccnc4)cc3)nc21` (centres unmarked) [No. 57, 1-Ethyl-2-[2-(2-methyl-pyrrolidin-1-yl)-ethylamino]-4-oxo-7-[4-(3-pyridin-3-ylmethylureido)phenyl]-1,4-dihydro[1,8]naphthyridine-3-carboxylic acid [2-(2-methylpyrrolidin-1-yl)ethyl]amide], it took 0.26 nM to reach half-maximal inhibition (IC50).

For the compound `CCn1c(NCC2CCCO2)c(C(=O)NCC2CCCO2)c(=O)c2ccc(-c3ccc(NC(=O)NCc4cccnc4)cc3)cc21` (centres unmarked) [No. 59, 1-Ethyl-4-oxo-7-[4-(3-pyridin-3-ylmethylureido)phenyl]-2-[(tetrahydrofuran-2-ylmethyl)amino]-1,4-dihydroquinoline-3-carboxylic acid (tetrahydrofuran-2-ylmethyl)amide], the IC50 came out at 0.47 nM.

In turn, `CCn1c(NCCN(C(C)C)C(C)C)c(C(=O)NCCN(C(C)C)C(C)C)c(=O)c2ccc(-c3ccc(NC(=O)NCc4cccnc4)cc3)cc21` [No. 60, 2-(2-Diisopropylaminoethylamino)-1-ethyl-4-oxo-7-[4-(3-pyridin-3-ylmethylureido)phenyl]-1,4-dihydroquinoline-3-carboxylic acid (2-diisopropylaminoethyl)amide] yielded an IC50 of 0.1 nM.

Consider `CCn1c(NCCN2CCCC2)c(C(=O)NCCN2CCCC2)c(=O)c2ccc(-c3ccc(NC(=O)NCc4cccnc4)cc3)cc21` [No. 61, 1-Ethyl-4-oxo-7-[4-(3-pyridin-3-ylmethylureido)phenyl]-2-(2-pyrrolidin-1-ylethylamino)-1,4-dihydroquinoline-3-carboxylic acid (2-pyrrolidin-1-ylethyl)amide], for which inhibition was half-maximal at 0.1 nM (IC50).
